Experimental findings from patent US8846719B2, “Isoxazolo-pyridine derivatives” (Roche Palo Alto LLC, priority 2007, dated 2014) are described below.

In this assay the target is human GABA A receptor α5β3γ2 (Homo sapiens (Human), UniProt P18507+P31644). Kind of assay: [3H]flumazenil competition binding assay, human GABA A α5β3γ2 receptors expressed in HEK293 cells. The following applies: human receptor; displacement of [3H]flumazenil (0.5 nM); means of two determinations; read-out: hKi GABAAa5. The essentials: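 Ki values, each the mean of two runs, derive from displacement of [3H]flumazenil from human α5β3γ2 GABA A receptors transiently expressed in HEK293 membranes. Binding ran 1 h at 4° C in Krebs-tris, pH 7.5, before filter harvest and scintillation counting.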
Regarding `O=C(NCCO)c1ccc(OCc2conc2-c2ccc(Cl)cc2)nc1` [Example 346, 6-[3-(4-Chloro-phenyl)-isoxazol-4-ylmethoxy]-N-(2-hydroxy-ethyl)-nicotinamide], the Ki came out at 10.9 nM.
For the compound `CC(O)CNC(=O)c1ccc(OCc2conc2-c2ccc(Cl)cc2)nc1` (centres unmarked) [Example 347, 6-[3-(4-Chloro-phenyl)-isoxazol-4-ylmethoxy]-N-(2-hydroxy-propyl)-nicotinamide], the Ki came to 7.1 nM.
To `O=C(NCCCO)c1ccc(OCc2conc2-c2ccc(Cl)cc2)nc1` [Example 348, 6-[3-(4-Chloro-phenyl)-isoxazol-4-ylmethoxy]-N-(3-hydroxy-propyl)-nicotinamide] belongs 10.3 nM; to `CC(C)(CO)NC(=O)c1ccc(OCc2conc2-c2ccc(Cl)cc2)nc1` [Example 349, 6-[3-(4-Chloro-phenyl)-isoxazol-4-ylmethoxy]-N-(2-hydroxy-1,1-dimethyl-ethyl)-nicotinamide], 39.9 nM; to `CC(C)(CO)CNC(=O)c1ccc(OCc2conc2-c2ccc(Cl)cc2)nc1` [Example 350, 6-[3-(4-Chloro-phenyl)-isoxazol-4-ylmethoxy]-N-(3-hydroxy-2,2-dimethyl-propyl)-nicotinamide], 22.9 nM.
To `CC(C)(C)OC(=O)N1CC(NC(=O)c2ccc(OCc3conc3-c3ccc(Cl)cc3)nc2)C1` [Example 351, 3-({6-[3-(4-Chloro-phenyl)-isoxazol-4-ylmethoxy]-pyridine-3-carbonyl}-amino)-azetidine-1-carboxylic acid tert-butyl ester] belongs 55.5 nM.
The result for `O=C(NC(CO)CO)c1ccc(OCc2conc2-c2ccc(Cl)cc2)nc1` [Example 353, 6-[3-(4-Chloro-phenyl)-isoxazol-4-ylmethoxy]-N-(2-hydroxy-1-hydroxymethyl-ethyl)-nicotinamide] reads 5.5 nM.
In the case of `C[C@H](CO)NC(=O)c1ccc(OCc2conc2-c2ccc(Cl)cc2)nc1` [Example 354, 6-[3-(4-Chloro-phenyl)-isoxazol-4-ylmethoxy]-N—((R)-2-hydroxy-1-methyl-ethyl)-nicotinamide], the Ki came out at 10.7 nM.
In the case of `C[C@@H](CO)NC(=O)c1ccc(OCc2conc2-c2ccc(Cl)cc2)nc1` [Example 355, 6-[3-(4-Chloro-phenyl)-isoxazol-4-ylmethoxy]-N—((S)-2-hydroxy-1-methyl-ethyl)-nicotinamide], the Ki turned out to be 4.3 nM.
Turning to `CC(=O)NCCNC(=O)c1ccc(OCc2conc2-c2ccc(Cl)cc2)nc1` [Example 356, N-(2-Acetylamino-ethyl)-6-[3-(4-chloro-phenyl)-isoxazol-4-ylmethoxy]-nicotinamide], the Ki was determined as 13.1 nM.
To `C[C@H](NC(=O)c1ccc(OCc2conc2-c2ccc(Cl)cc2)nc1)C(F)(F)F` [Example 357, 6-[3-(4-Chloro-phenyl)-isoxazol-4-ylmethoxy]-N—((S)-2,2,2-trifluoro-1-methyl-ethyl)-nicotinamide] belongs roughly 20 nM; to `O=C(NC1CCOCC1)c1ccc(OCc2conc2-c2ccccn2)nc1` [Example 358, 6-(3-Pyridin-2-yl-isoxazol-4-ylmethoxy)-N-(tetrahydro-pyran-4-yl)-nicotinamide], 17.8 nM; to `CC(C)NC(=O)c1ccc(OCc2conc2-c2ccccn2)nc1` [Example 359, N-Isopropyl-6-(3-pyridin-2-yl-isoxazol-4-ylmethoxy)-nicotinamide], 13.1 nM.
Regarding `O=C(NC1CC1)c1ccc(OCc2conc2-c2ccccn2)nc1` [Example 360, N-Cyclopropyl-6-(3-pyridin-2-yl-isoxazol-4-ylmethoxy)-nicotinamide], the Ki was found to be 18.9 nM.
The result for `O=C(NCC1CC1)c1ccc(OCc2conc2-c2ccccn2)nc1` [Example 361, N-Cyclopropylmethyl-6-(3-pyridin-2-yl-isoxazol-4-ylmethoxy)-nicotinamide] reads 19 nM.
The result for `O=C(NCC(F)(F)F)c1ccc(OCc2conc2-c2ccccn2)nc1` [Example 362, 6-(3-Pyridin-2-yl-isoxazol-4-ylmethoxy)-N-(2,2,2-trifluoro-ethyl)-nicotinamide] reads 8 nM; that for `O=C(NCCO)c1ccc(OCc2conc2-c2ccccn2)nc1` [Example 363, N-(2-Hydroxy-ethyl)-6-(3-pyridin-2-yl-isoxazol-4-ylmethoxy)-nicotinamide], 19.9 nM.
In the case of `CCNC(=O)c1ccc(OCc2conc2-c2ccccn2)nc1` [Example 364, N-Ethyl-6-(3-pyridin-2-yl-isoxazol-4-ylmethoxy)-nicotinamide], the Ki amounted to 13.6 nM.
To `O=C(NC1CCOCC1)c1ccc(OCc2conc2-c2ccc(F)cn2)nc1` [Example 365, 6-[3-(5-Fluoro-pyridin-2-yl)-isoxazol-4-ylmethoxy]-(tetrahydro-pyran-4-yl)-nicotinamide] belongs 8 nM; to `CC(C)NC(=O)c1ccc(OCc2conc2-c2ccc(F)cn2)nc1` [Example 366, 6-[3-(5-Fluoro-pyridin-2-yl)-isoxazol-4-ylmethoxy]-isopropyl-nicotinamide], 6.8 nM; to `O=C(NC1CC1)c1ccc(OCc2conc2-c2ccc(F)cn2)nc1` [Example 367, Cyclopropyl-6-[3-(5-fluoro-pyridin-2-yl)-isoxazol-4-ylmethoxy]-nicotinamide], 13.5 nM.
The result for `CC(C)(CO)NC(=O)c1ccc(OCc2conc2-c2ccc(F)cn2)nc1` [Example 368, 6-[3-(5-Fluoro-pyridin-2-yl)-isoxazol-4-ylmethoxy]-(2-hydroxy-1,1-dimethyl-ethyl)-nicotinamide] reads 44.9 nM; that for `O=C(NCC(F)(F)F)c1ccc(OCc2conc2-c2ccc(F)cn2)nc1` [Example 369, 6-[3-(5-Fluoro-pyridin-2-yl)-isoxazol-4-ylmethoxy]-(2,2,2-trifluoro-ethyl)-nicotinamide], 9.3 nM.
Take `O=C(NCCO)c1ccc(OCc2conc2-c2ccc(F)cn2)nc1` [Example 370, 6-[3-(5-Fluoro-pyridin-2-yl)-isoxazol-4-ylmethoxy]-(2-hydroxy-ethyl)-nicotinamide]: the Ki came out at 21.4 nM.
In the case of `CCNC(=O)c1ccc(OCc2conc2-c2ccc(F)cn2)nc1` [Example 371, Ethyl-6-[3-(5-fluoro-pyridin-2-yl)-isoxazol-4-ylmethoxy]-nicotinamide], the Ki worked out at 14.1 nM.
The result for `CNC(=O)c1ccc(OCc2conc2-c2ccc(F)cn2)nc1` [Example 372, 6-[3-(5-Fluoro-pyridin-2-yl)-isoxazol-4-ylmethoxy]-methyl-nicotinamide] reads 18.5 nM.
